# Source: patent publication US9708316B2 (BRISTOL-MYERS SQUIBB COMPANY, priority 2014, dated 2017)
# Legend:
# HIS-TGFβR1 T204D = molecular target: T1, HIS-TGFβR1 T204D (Homo sapiens, UniProt P36897, T204D); experiment: HTRF probe-displacement assay, HIS-TGFβR1 T204D; format: binding; conditions: read-out: TGFβR1 (μM) IC50
# T1 sequence (P36897 34-503 T204D): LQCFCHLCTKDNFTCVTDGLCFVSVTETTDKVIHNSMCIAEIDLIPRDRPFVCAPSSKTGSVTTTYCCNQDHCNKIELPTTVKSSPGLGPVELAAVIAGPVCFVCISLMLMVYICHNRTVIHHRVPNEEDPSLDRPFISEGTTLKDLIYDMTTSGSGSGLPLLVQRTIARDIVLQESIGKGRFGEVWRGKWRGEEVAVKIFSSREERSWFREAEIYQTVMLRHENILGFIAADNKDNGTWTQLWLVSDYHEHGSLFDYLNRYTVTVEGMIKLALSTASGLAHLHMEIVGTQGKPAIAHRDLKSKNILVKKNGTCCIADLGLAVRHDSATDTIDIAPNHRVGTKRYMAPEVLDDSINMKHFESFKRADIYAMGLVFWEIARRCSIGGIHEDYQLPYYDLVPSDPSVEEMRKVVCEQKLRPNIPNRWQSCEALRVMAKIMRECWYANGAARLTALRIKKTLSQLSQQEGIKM
# HIS-TGFβR2 WT = HIS-TGFβR2 WT (Homo sapiens, UniProt P37173); experiment: HTRF probe-displacement assay, HIS-TGFβR2 WT; format: binding
# HIS-TGFβR2 WT, sequence (P37173 23-567): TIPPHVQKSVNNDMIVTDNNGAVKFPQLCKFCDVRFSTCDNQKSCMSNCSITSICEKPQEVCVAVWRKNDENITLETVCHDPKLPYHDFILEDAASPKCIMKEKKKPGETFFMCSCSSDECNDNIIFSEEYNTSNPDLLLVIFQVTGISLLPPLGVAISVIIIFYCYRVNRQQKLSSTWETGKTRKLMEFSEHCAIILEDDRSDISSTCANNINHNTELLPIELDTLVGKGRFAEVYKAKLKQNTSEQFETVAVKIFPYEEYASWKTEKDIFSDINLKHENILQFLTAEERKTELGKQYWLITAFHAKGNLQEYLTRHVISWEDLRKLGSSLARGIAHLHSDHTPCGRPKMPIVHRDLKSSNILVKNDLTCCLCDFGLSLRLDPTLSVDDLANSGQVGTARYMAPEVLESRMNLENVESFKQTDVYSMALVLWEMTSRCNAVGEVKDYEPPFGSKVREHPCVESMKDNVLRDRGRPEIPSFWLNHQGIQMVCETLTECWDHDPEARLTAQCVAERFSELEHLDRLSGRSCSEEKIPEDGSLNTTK
Structure (SMILES),IC50 (HIS-TGFβR1 T204D) [µM],IC50 (HIS-TGFβR2 WT) [µM]
"CC(=O)Nc1cc(-c2[nH]c3cccnc3c2-c2csc(C)n2)ccn1 [Example 211, N-(4-(3-(2-Methylthiazol-4-yl)-1H-pyrrolo[3,2-b]pyridin-2-yl)pyridin-2-yl)acetamide]",0.0049,1.04
"CNCc1cnc2c(-c3ccc(OC)cn3)c(-c3ccnc(NC(C)=O)c3)[nH]c2c1 [Example 293, N-(4-(3-(5-Methoxypyridin-2-yl)-6-((methylamino)methyl)-1H-pyrrolo[3,2-b]pyridin-2-yl)pyridin-2-yl)acetamide]",0.016,> 15
"CC(=O)Nc1cc(-c2[nH]c3cccnc3c2-c2nc(CO)cs2)ccn1 [Example 204, N-(4-(3-(4-(Hydroxymethyl)thiazol-2-yl)-1H-pyrrolo[3,2-b]pyridin-2-yl)pyridin-2-yl)acetamide]",0.0055,0.111
"COc1ccnc2c(-c3ccc(F)cn3)c(-c3ccnc(NC(C)=O)c3)[nH]c12 [Example 268, N-(4-(3-(5-Fluoropyridin-2-yl)-7-methoxy-1H-pyrrolo[3,2-b]pyridin-2-yl)pyridin-2-yl)acetamide]",0.005,2.45
"O=C(CO)Nc1cc(-c2[nH]c3cc(Cl)cnc3c2-c2ccc(F)cn2)ccn1 [Example 72, N-{4-[6-Chloro-3-(5-fluoropyridin-2-yl)-1H-pyrrolo[3,2-b]pyridin-2-yl]pyridin-2-yl}-2-hydroxyacetamide]",0.008,1.55
"CC(=O)Nc1cc(-c2[nH]c3cccnc3c2-c2cnc(F)c(C)c2)ccn1 [Example 11, N-{4-[3-(6-Fluoro-5-methylpyridin-3-yl)-1H-pyrrolo[3,2-b]pyridin-2-yl]pyridin-2-yl}acetamide]",0.027,0.009
"CNCc1ccnc2c(-c3cccc(C(F)F)n3)c(-c3ccnc(NC(C)=O)c3)[nH]c12 [Example 151, N-(4-{3-[6-(Difluoromethyl)pyridin-2-yl]-7-[(methylamino)methyl]-1H-pyrrolo[3,2-b]pyridin-2-yl}pyridin-2-yl)acetamide]",0.01,> 15
"COc1ccc(-c2c(-c3ccnc(NC(C)=O)c3)[nH]c3cc(N4CCC(NC(C)=O)CC4)cnc23)nc1 [Example 159, N-(4-(6-(4-Acetamidopiperidin-1-yl)-3-(5-methoxypyridin-2-yl)-1H-pyrrolo[3,2-b]pyridin-2-yl)pyridin-2-yl)acetamide]",0.0311,> 15
"CCOc1cccc(-c2c(-c3ccnc(NC(C)=O)c3)[nH]c3cc(Cl)cnc23)n1 [Example 256, N-(4-(6-Chloro-3-(6-ethoxypyridin-2-yl)-1H-pyrrolo[3,2-b]pyridin-2-yl)pyridin-2-yl)acetamide]",0.02,> 15
"COc1ccc(-c2c(-c3ccnc(NC(C)=O)c3)[nH]c3ccc(OC)nc23)cn1 [Example 76, N-(4-(5-Methoxy-3-(6-methoxypyridin-3-yl)-1H-pyrrolo[3,2-b]pyridin-2-yl)pyridin-2-yl)acetamide]",0.016,0.93
"O=C(CNCCO)Nc1cc(-c2[nH]c3cc(Cl)cnc3c2-c2ccc(F)cn2)ccn1 [Example 75, N-{4-[6-Chloro-3-(5-fluoropyridin-2-yl)-1H-pyrrolo[3,2-b]pyridin-2-yl]pyridin-2-yl}-2-[(2-hydroxyethyl)amino]acetamide]",0.005,1.03
"CCNc1cc(-c2[nH]c3cc(Cl)cnc3c2-c2ccc(OC)cn2)ccn1 [Example 242, 4-(6-Chloro-3-(5-methoxypyridin-2-yl)-1H-pyrrolo[3,2-b]pyridin-2-yl)-N-ethylpyridin-2-amine]",0.033,≥ 15
"CC(=O)Nc1cc(-c2[nH]c3c(C4CCN(C)CC4)ccnc3c2-c2cccc(C(F)F)n2)ccn1 [Example 137, N-(4-{3-[6-(Difluoromethyl)pyridin-2-yl]-7-(1-methylpiperidin-4-yl)-1H-pyrrolo[3,2-b]pyridin-2-yl}pyridin-2-yl)acetamide]",0.058,> 15

# Now those with a lower IC50 (HIS-TGFβR1 T204D), led by results:
IC50 (HIS-TGFβR1 T204D) [µM],IC50 (HIS-TGFβR2 WT) [µM],Structure (SMILES)
0.001,0.681,"CC(=O)Nc1cc(-c2[nH]c3c(C(C)O)ccnc3c2-c2ccc(Cl)nc2)ccn1 (stereo not drawn) [Example 264, N-(4-(3-(6-Chloropyridin-3-yl)-7-(1-hydroxyethyl)-1H-pyrrolo[3,2-b]pyridin-2-yl)pyridin-2-yl)acetamide]"
0.0009,0.218,"COc1cnc2c(-c3ncc(C)s3)c(-c3ccnc(NC(C)=O)c3)[nH]c2c1 [Example 209, N-(4-(6-Methoxy-3-(5-methylthiazol-2-yl)-1H-pyrrolo[3,2-b]pyridin-2-yl)pyridin-2-yl)acetamide]"
0.002,0.487,"COc1ccc(-c2c(-c3ccnc(NC(=O)CN4CCN(CCO)CC4)c3)[nH]c3cccnc23)cn1 [Example 288, 2-(4-(2-Hydroxyethyl)piperazin-1-yl)-N-(4-(3-(6-methoxypyridin-3-yl)-1H-pyrrolo[3,2-b]pyridin-2-yl)pyridin-2-yl)acetamide]"
0.002,> 15,"CC(=O)Nc1cc(-c2[nH]c3cccnc3c2-c2ccc(C(F)(F)F)nc2)ccn1 [Example 13, N-(4-{3-[6-(Trifluoromethyl)pyridin-3-yl]-1H-pyrrolo[3,2-b]pyridin-2-yl}pyridin-2-yl)acetamide]"
0.002,2.94,"[2H]C([2H])([2H])C(O)c1ccnc2c(-c3cccc(C(F)F)n3)c(-c3ccnc(NC(C)=O)c3)[nH]c12 (stereo not drawn) [Example 145, N-(4-{3-[6-(Difluoromethyl)pyridin-2-yl]-7-[1-hydroxy(2,2,2-2H)ethyl]-1H-pyrrolo[3,2-b]pyridin-2-yl}pyridin-2-yl)acetamide]"
0.0006,0.041,"CC(=O)Nc1cc(-c2[nH]c3cccnc3c2-c2nc(C)cs2)ccn1 [Example 199, N-(4-(3-(4-Methylthiazol-2-yl)-1H-pyrrolo[3,2-b]pyridin-2-yl)pyridin-2-yl)acetamide]"
0.001,7.81,"CC(=O)Nc1cc(-c2[nH]c3c(CO)ccnc3c2-c2cccc(C(F)F)n2)ccn1 [Example 142, N-(4-{3-[6-(Difluoromethyl)pyridin-2-yl]-7-(hydroxymethyl)-1H-pyrrolo[3,2-b]pyridin-2-yl}pyridin-2-yl)acetamide]"
0.002,0.75,"CC(=O)Nc1cc(-c2[nH]c3c([C@H](C)O)ccnc3c2-c2cccc(C(F)F)n2)ccn1 (single isomer, unassigned) [Example 147]"
0.002,4.09,"CC(=O)Nc1cc(-c2[nH]c3c(CN4CC(F)(F)C4)ccnc3c2-c2cccc(C(F)F)n2)ccn1 [Example 152, N-(4-{7-[(3,3-Difluoroazetidin-1-yl)methyl]-3-[6-(difluoromethyl)pyridin-2-yl]-1H-pyrrolo[3,2-b]pyridin-2-yl}pyridin-2-yl)acetamide]"
0.004,> 15,"COc1ccc(-c2c(-c3ccnc(NC(C)=O)c3)[nH]c3cc(-c4c(C)nnn4C)cnc23)nc1 [Example 94, N-{4-[6-(Dimethyl-1H-1,2,3-triazol-5-yl)-3-(5-methoxypyridin-2-yl)-1H-pyrrolo[3,2-b]pyridin-2-yl]pyridin-2-yl}acetamide]"
0.001,8.47,"CC(=O)Nc1cc(-c2[nH]c3c(CN4CCN(C)CC4)ccnc3c2-c2cccc(C(F)F)n2)ccn1 [Example 139, N-(4-{3-[6-(Difluoromethyl)pyridin-2-yl]-7-[(4-methylpiperazin-1-yl)methyl]-1H-pyrrolo[3,2-b]pyridin-2-yl}pyridin-2-yl)acetamide]"
0.002,7.78,"COc1ccc(-c2c(-c3ccnc(NC(C)=O)c3)[nH]c3cc(C(=O)C(F)(F)F)cnc23)nc1 [Example 296, N-(4-(3-(5-Methoxypyridin-2-yl)-6-(2,2,2-trifluoroacetyl)-1H-pyrrolo[3,2-b]pyridin-2-yl)pyridin-2-yl)acetamide]"
0.004,4.33,"COc1ccc(-c2c(-c3ccnc(NC(C)=O)c3)[nH]c3cc(C(O)C(F)(F)F)cnc23)nc1 (stereo not drawn) [Example 297, N-(4-(3-(5-Methoxypyridin-2-yl)-6-(2,2,2-trifluoro-1-hydroxyethyl)-1H-pyrrolo[3,2-b]pyridin-2-yl)pyridin-2-yl)acetamide]"
0.002,0.005,"COc1ccc(-c2c(-c3ccnc(NC(=O)C4CC4)c3)[nH]c3cccnc23)cn1 [Example 53, N-{4-[3-(6-Methoxypyridin-3-yl)-1H-pyrrolo[3,2-b]pyridin-2-yl]pyridin-2-yl}cyclopropanecarboxamide]"
0.001,1.85,"CC(=O)Nc1cc(-c2[nH]c3cc(Br)cnc3c2-c2cccc(C(F)F)n2)ccn1 [Example 272, N-(4-(6-Bromo-3-(6-(difluoromethyl)pyridin-2-yl)-1H-pyrrolo[3,2-b]pyridin-2-yl)pyridin-2-yl)acetamide]"
0.002,8.37,"CC(=O)Nc1cc(-c2[nH]c3c(C(F)F)ccnc3c2-c2cccc(C(F)F)n2)ccn1 [Example 149, N-{4-[7-(Difluoromethyl)-3-[6-(difluoromethyl)pyridin-2-yl]-1H-pyrrolo[3,2-b]pyridin-2-yl]pyridin-2-yl}acetamide]"
0.002,0.61,"COc1cnc2c(-c3ccc(F)c(C)n3)c(-c3ccnc(NC(C)=O)c3)[nH]c2c1 [Example 51, N-{4-[3-(5-Fluoro-6-methylpyridin-2-yl)-6-methoxy-1H-pyrrolo[3,2-b]pyridin-2-yl]pyridin-2-yl}acetamide]"
